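In this assay, cells in 96-well plates receive the compound at five concentrations for 48 hours. Endpoints are linearly interpolated between the surrounding concentrations. At the GI50, growth is halved.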 Activity calls are given as the source filed them. Cut-off read from the data, not from the text of the source: active = GI50 up to about 1.1 µM and inactive = higher.
How the values were obtained:
Test in all cases: NCI anticancer screen, dose series, 48 h
ACHN = system: ACHN
CCRF-CEM = system: CCRF-CEM
DU-145 = system: DU-145
HCT-116 = system: HCT-116
IGROV-1 = system: IGROV-1
KM12 = system: KM12
MCF7 = system: MCF7
MDA-MB-231 = system: MDA-MB-231
MDA-MB-435 = system: MDA-MB-435
MDA-N = system: MDA-N
NCI-H226 = system: NCI-H226
OVCAR-5 = system: OVCAR-5
RXF 393 = system: RXF 393
SF-539 = system: SF-539
SK-MEL-28 = system: SK-MEL-28
SK-OV-3 = system: SK-OV-3
SW-620 = system: SW-620
U-251 = system: U-251
UACC-62 = system: UACC-62
DMS-114 = system: DMS-114

Measured: GI50

O=c1c2ccccc2sc2c(CO)ccc(NCCN3CCCCC3)c12
inactive: ACHN 2.39 µM | CCRF-CEM 1.15 µM | DU-145 2.54 µM | HCT-116 2.38 µM | IGROV-1 3.93 µM | KM12 3.55 µM | MCF7 2.99 µM | MDA-MB-231 5.48 µM | MDA-MB-435 2.64 µM | MDA-N 3.08 µM | NCI-H226 2.85 µM | OVCAR-5 6.35 µM | RXF 393 2.39 µM | SF-539 5 µM | SK-MEL-28 2.9 µM | SK-OV-3 3.91 µM | SW-620 2.25 µM | U-251 3.79 µM | UACC-62 4.33 µM

O=C(O)/C(Cl)=C(\Cl)C(=O)NC1C2CC3CC(C2)CC1C3 (centres undefined)
inactive: ACHN > 100 µM | CCRF-CEM > 100 µM | DMS-114 > 100 µM | HCT-116 > 100 µM | IGROV-1 > 100 µM | KM12 9.64 µM | NCI-H226 > 100 µM | OVCAR-5 > 100 µM | SF-539 > 100 µM | SK-MEL-28 > 100 µM | SK-OV-3 > 100 µM | SW-620 > 100 µM | U-251 > 100 µM | UACC-62 > 100 µM

CC1N(C)C(=O)OC12CCN(CCCC(=O)c1ccc(F)cc1)CC2 (centres undefined)
inactive: ACHN > 100 µM | CCRF-CEM > 100 µM | DU-145 > 100 µM | HCT-116 > 100 µM | IGROV-1 > 100 µM | KM12 > 100 µM | MCF7 > 100 µM | MDA-MB-231 > 100 µM | MDA-MB-435 > 100 µM | MDA-N > 100 µM | NCI-H226 > 100 µM | OVCAR-5 > 100 µM | RXF 393 > 100 µM | SF-539 > 100 µM | SK-MEL-28 > 100 µM | SK-OV-3 > 100 µM | SW-620 > 100 µM | U-251 > 100 µM | UACC-62 > 100 µM

CNC(=S)NC1CCCCC1NC(=S)NC (centres undefined)
inactive: ACHN > 100 µM | CCRF-CEM > 100 µM | DMS-114 > 100 µM | HCT-116 > 100 µM | IGROV-1 > 100 µM | KM12 > 100 µM | NCI-H226 > 100 µM | OVCAR-5 > 100 µM | SF-539 > 100 µM | SK-MEL-28 > 100 µM | SK-OV-3 > 100 µM | SW-620 > 100 µM | U-251 > 100 µM | UACC-62 > 100 µM

O=C(N/C(=C\c1cccc([N+](=O)[O-])c1)c1nc2ccccc2[nH]1)c1ccccc1
inactive: ACHN 51.4 µM | CCRF-CEM 34.4 µM | DMS-114 26.7 µM | HCT-116 59.8 µM | IGROV-1 91.4 µM | KM12 69 µM | NCI-H226 51.6 µM | OVCAR-5 63.4 µM | SF-539 45.6 µM | SK-MEL-28 18.3 µM | SK-OV-3 > 100 µM | SW-620 > 100 µM | U-251 44 µM | UACC-62 88.1 µM

COc1c(Br)cc(Br)c(OC)c1-c1ccc[nH]1
inactive: ACHN > 100 µM | CCRF-CEM 78.9 µM | DMS-114 74.6 µM | HCT-116 97.3 µM | IGROV-1 53.6 µM | KM12 > 100 µM | NCI-H226 43.9 µM | OVCAR-5 > 100 µM | SF-539 > 100 µM | SK-MEL-28 > 100 µM | SK-OV-3 > 100 µM | SW-620 35 µM | U-251 > 100 µM | UACC-62 56.1 µM

CC12CC3C(CC1SCC(=O)O2)C3(C)C (centres undefined)
inactive: ACHN > 100 µM | CCRF-CEM > 100 µM | DMS-114 > 100 µM | HCT-116 > 100 µM | IGROV-1 > 100 µM | KM12 > 100 µM | OVCAR-5 > 100 µM | SF-539 > 100 µM | SK-MEL-28 > 100 µM | SK-OV-3 > 100 µM | U-251 > 100 µM

COc1ccc(/C(CC2OC(=O)c3ccccc32)=N\NC(N)=O)cc1 (centres undefined)
inactive: ACHN > 100 µM | CCRF-CEM > 100 µM | DU-145 > 100 µM | HCT-116 > 100 µM | IGROV-1 > 100 µM | KM12 > 100 µM | MCF7 > 100 µM | MDA-MB-231 > 100 µM | MDA-MB-435 > 100 µM | MDA-N > 100 µM | NCI-H226 > 100 µM | OVCAR-5 > 100 µM | RXF 393 > 100 µM | SF-539 > 100 µM | SK-MEL-28 > 100 µM | SK-OV-3 > 100 µM | SW-620 > 100 µM | U-251 > 100 µM | UACC-62 > 100 µM

— ChEMBL document CHEMBL1201862, “PubChem BioAssay data set” (2004)
